What all share (format): cell-based
The target of data set [1] is human NaV1.7 (Homo sapiens, UniProt Q15858). The data set is described as follows: IonWorks Quattro (IWQ) electrophysiology, human NaV1.7.
The target of data set [2] is human NaV1.4 (Homo sapiens, UniProt P35499). The data set is described as follows: IonWorks Quattro (IWQ) electrophysiology, human NaV1.4.
For data set [3], the target named is human NaV1.5 (Homo sapiens, UniProt Q14524). The data set is described as follows: IonWorks Quattro (IWQ) electrophysiology, human NaV1.5.
Chain of human NaV1.5 (Q14524 whole entry): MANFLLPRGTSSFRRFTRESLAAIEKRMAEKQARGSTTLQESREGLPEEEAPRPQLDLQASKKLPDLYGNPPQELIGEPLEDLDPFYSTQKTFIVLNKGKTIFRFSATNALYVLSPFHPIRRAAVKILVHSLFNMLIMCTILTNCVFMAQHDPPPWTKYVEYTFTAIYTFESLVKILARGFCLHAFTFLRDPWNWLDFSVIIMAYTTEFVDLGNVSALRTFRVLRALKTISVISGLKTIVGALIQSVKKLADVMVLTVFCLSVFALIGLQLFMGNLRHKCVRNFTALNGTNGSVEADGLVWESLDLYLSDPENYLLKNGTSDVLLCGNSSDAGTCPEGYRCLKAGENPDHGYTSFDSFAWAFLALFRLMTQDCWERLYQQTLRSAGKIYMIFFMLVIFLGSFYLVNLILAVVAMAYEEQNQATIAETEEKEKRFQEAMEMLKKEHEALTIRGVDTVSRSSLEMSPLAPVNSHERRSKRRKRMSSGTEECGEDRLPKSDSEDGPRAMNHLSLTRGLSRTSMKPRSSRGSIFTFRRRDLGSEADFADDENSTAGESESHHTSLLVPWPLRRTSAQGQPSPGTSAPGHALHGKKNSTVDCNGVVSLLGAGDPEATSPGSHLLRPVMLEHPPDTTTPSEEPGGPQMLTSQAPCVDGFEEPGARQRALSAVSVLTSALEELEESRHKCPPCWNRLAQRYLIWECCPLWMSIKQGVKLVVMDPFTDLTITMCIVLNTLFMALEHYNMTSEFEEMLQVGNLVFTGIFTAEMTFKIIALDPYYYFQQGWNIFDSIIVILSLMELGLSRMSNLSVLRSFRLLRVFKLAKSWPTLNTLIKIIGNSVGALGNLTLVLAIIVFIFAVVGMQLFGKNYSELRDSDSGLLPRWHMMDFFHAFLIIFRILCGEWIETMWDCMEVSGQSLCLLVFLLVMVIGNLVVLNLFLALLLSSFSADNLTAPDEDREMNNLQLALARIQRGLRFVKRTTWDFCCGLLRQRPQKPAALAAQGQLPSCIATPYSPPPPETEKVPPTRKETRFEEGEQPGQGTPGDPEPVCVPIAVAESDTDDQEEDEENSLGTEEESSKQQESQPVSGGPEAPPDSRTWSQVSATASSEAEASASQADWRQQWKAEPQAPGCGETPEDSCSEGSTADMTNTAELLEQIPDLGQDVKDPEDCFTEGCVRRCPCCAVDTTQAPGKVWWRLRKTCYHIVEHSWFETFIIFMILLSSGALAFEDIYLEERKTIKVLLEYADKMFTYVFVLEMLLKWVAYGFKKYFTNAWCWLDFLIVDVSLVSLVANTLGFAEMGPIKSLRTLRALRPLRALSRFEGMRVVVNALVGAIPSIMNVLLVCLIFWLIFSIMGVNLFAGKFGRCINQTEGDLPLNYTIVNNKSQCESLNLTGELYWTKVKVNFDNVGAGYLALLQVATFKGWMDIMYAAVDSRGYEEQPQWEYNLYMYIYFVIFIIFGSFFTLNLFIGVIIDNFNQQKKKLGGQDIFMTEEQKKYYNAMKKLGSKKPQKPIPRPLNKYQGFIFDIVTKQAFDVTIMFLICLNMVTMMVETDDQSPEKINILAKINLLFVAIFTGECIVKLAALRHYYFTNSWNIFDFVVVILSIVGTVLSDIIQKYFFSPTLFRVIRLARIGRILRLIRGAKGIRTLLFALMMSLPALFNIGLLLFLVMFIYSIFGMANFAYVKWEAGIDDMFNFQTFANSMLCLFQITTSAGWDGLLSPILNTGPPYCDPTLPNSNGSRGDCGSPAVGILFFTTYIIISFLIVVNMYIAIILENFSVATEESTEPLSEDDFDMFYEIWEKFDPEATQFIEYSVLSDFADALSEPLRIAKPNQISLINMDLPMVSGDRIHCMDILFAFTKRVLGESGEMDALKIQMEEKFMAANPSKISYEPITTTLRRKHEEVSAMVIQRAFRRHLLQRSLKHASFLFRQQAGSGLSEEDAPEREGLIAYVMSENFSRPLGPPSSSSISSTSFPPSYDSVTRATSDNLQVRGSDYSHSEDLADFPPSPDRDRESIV
The mark [4] stands for this setting: read-out: Ala mutant IWQ IC50 NaV1.7.
The mark [5] stands for this setting: read-out: Ala mutant IWQ IC50 NaV1.4.
Setting [6] is: read-out: Ala mutant IWQ IC50 NaV1.5.
Where [7] appears, read: read-out: Glu mutant IWQ IC50 NaV1.7.
[8] abbreviates: read-out: Glu mutant IWQ IC50 NaV1.4.
The mark [9] stands for this setting: read-out: Glu mutant IWQ IC50 NaV1.5.
Setting [10] is: human, read-out: Ala mutant IWQ IC50 NaV1.5.
[11] abbreviates: human, read-out: Glu mutant IWQ IC50 NaV1.5.

Molecules are shown by their SMILES. Where two headings read alike, the source gives them in different places.

Chain of human NaV1.4 (P35499 whole entry): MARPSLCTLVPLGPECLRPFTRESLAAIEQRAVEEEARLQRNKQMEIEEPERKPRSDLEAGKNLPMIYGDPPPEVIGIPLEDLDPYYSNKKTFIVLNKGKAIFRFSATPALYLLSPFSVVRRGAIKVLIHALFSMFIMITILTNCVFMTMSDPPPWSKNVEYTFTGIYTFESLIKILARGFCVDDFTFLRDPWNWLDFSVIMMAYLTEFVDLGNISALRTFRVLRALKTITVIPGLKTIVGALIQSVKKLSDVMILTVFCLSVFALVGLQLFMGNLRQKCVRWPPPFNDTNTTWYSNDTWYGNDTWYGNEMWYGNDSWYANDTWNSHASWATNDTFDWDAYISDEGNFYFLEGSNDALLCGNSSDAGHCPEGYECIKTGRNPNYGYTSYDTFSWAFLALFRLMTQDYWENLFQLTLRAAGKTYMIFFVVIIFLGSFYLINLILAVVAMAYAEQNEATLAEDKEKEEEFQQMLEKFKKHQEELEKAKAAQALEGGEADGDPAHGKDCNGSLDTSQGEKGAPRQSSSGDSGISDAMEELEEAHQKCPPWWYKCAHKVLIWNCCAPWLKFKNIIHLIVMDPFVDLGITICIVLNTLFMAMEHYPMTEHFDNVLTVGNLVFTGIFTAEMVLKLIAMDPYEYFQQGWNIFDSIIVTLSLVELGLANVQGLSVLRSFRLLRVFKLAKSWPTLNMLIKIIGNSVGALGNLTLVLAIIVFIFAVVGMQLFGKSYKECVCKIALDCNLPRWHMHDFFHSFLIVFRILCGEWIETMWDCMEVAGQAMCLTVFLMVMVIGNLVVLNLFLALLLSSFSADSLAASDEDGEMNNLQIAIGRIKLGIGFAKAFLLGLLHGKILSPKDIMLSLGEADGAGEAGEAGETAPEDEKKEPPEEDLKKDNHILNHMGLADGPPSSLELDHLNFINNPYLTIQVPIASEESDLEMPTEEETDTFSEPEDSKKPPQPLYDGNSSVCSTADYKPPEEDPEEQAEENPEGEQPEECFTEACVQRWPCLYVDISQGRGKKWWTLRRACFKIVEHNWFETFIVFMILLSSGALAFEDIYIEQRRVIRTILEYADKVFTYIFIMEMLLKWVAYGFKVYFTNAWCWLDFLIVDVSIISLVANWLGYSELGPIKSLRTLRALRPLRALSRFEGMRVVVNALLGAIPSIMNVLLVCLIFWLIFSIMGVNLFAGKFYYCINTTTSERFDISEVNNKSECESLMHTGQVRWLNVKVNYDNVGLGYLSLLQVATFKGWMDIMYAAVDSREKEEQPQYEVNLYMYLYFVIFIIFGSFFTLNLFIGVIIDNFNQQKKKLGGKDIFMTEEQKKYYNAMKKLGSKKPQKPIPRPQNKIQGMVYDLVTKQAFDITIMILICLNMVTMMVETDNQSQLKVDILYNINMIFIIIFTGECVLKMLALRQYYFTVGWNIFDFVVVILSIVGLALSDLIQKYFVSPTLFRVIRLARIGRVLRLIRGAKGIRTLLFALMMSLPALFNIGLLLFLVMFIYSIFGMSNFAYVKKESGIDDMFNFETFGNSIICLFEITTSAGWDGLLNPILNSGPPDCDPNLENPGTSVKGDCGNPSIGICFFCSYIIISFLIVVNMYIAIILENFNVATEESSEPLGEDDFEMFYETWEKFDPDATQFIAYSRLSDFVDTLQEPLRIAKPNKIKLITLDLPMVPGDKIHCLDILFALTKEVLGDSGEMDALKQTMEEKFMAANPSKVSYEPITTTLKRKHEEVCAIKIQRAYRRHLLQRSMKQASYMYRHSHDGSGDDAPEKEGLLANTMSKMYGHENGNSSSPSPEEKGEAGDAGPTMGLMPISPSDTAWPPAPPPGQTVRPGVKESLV

As for `CC[C@H](C)[C@H](NC(=O)[C@@H](NC(=O)[C@H](CCCCN)NC(=O)[C@H](CCCNC(=N)N)NC(=O)[C@@H]1CSSC[C@@H]2NC(=O)[C@H](C)NC(=O)[C@H](CCCNC(=N)N)NC(=O)[C@H](CCCCN)NC(=O)[C@H](CO)NC(=O)[C@H](C)NC(=O)[C@@H]3CSSC[C@H](NC(=O)[C@H](CCCNC(=N)N)NC(=O)[C@H](CC(C)C)NC(=O)CNC(=O)[C@H](CCC(=O)O)NC(=O)[C@H](CSSC[C@H](NC(=O)[C@@H](N)Cc4ccc(O)cc4)C(=O)N[C@@H](CCC(N)=O)C(=O)N[C@@H](CCCCN)C(=O)N[C@@H](Cc4c[nH]c5ccccc45)C(=O)N[C@@H](CCSC)C(=O)N[C@@H](Cc4c[nH]c5ccccc45)C(=O)N[C@@H]([C@@H](C)O)C(=O)N3)NC2=O)C(=O)N[C@@H](CCCCN)C(=O)N[C@@H](CC(C)C)C(=O)N[C@@H](Cc2c[nH]c3ccccc23)C(=O)N1)[C@@H](C)CC)C(N)=O` [D10 Ala mutant], the IC50 was 0.345 µM in data set [1] (setting [4]), 0.917 µM in data set [2] (setting [5]) and over 10 µM in data set [3] (setting [6]).
Regarding `CC[C@H](C)[C@H](NC(=O)[C@@H](NC(=O)[C@H](CCCCN)NC(=O)[C@H](CCCNC(=N)N)NC(=O)[C@@H]1CSSC[C@@H]2NC(=O)[C@H](C)NC(=O)[C@H](CCCNC(=N)N)NC(=O)[C@H](CCCCN)NC(=O)[C@H](CO)NC(=O)[C@H](CCC(=O)O)NC(=O)[C@@H]3CSSC[C@H](NC(=O)[C@H](CCCNC(=N)N)NC(=O)[C@H](CC(C)C)NC(=O)CNC(=O)[C@H](CCC(=O)O)NC(=O)[C@H](CSSC[C@H](NC(=O)[C@@H](N)Cc4ccc(O)cc4)C(=O)N[C@@H](CCC(N)=O)C(=O)N[C@@H](CCCCN)C(=O)N[C@@H](Cc4c[nH]c5ccccc45)C(=O)N[C@@H](CCSC)C(=O)N[C@@H](Cc4c[nH]c5ccccc45)C(=O)N[C@@H]([C@@H](C)O)C(=O)N3)NC2=O)C(=O)N[C@@H](CCCCN)C(=O)N[C@@H](CC(C)C)C(=O)N[C@@H](Cc2c[nH]c3ccccc23)C(=O)N1)[C@@H](C)CC)C(N)=O` [D10 Glu mutant], the results for the IC50 in data set [1] (setting [7]), in data set [2] (setting [8]) and in data set [3] (setting [9]) were 1.3 µM, 8.8 µM and over 10 µM, respectively.
Consider `CC[C@H](C)[C@H](NC(=O)[C@@H](NC(=O)[C@H](CCCCN)NC(=O)[C@H](CCCNC(=N)N)NC(=O)[C@@H]1CSSC[C@@H]2NC(=O)[C@H](C)NC(=O)[C@H](CCCNC(=N)N)NC(=O)[C@H](CCCCN)NC(=O)[C@H](CO)NC(=O)[C@H](CC(=O)O)NC(=O)[C@@H]3CSSC[C@H](NC(=O)[C@H](CCCNC(=N)N)NC(=O)[C@H](CC(C)C)NC(=O)[C@H](C)NC(=O)[C@H](CCC(=O)O)NC(=O)[C@H](CSSC[C@H](NC(=O)[C@@H](N)Cc4ccc(O)cc4)C(=O)N[C@@H](CCC(N)=O)C(=O)N[C@@H](CCCCN)C(=O)N[C@@H](Cc4c[nH]c5ccccc45)C(=O)N[C@@H](CCSC)C(=O)N[C@@H](Cc4c[nH]c5ccccc45)C(=O)N[C@@H]([C@@H](C)O)C(=O)N3)NC2=O)C(=O)N[C@@H](CCCCN)C(=O)N[C@@H](CC(C)C)C(=O)N[C@@H](Cc2c[nH]c3ccccc23)C(=O)N1)[C@@H](C)CC)C(N)=O` [G18 Ala mutant], for which the IC50 was 0.265 µM in data set [2] (setting [5]) and over 5 µM in data set [3] (setting [10]).
`CC[C@H](C)[C@H](NC(=O)[C@@H](NC(=O)[C@H](CCCCN)NC(=O)[C@H](CCCNC(=N)N)NC(=O)[C@@H]1CSSC[C@@H]2NC(=O)[C@H](C)NC(=O)[C@H](CCCNC(=N)N)NC(=O)[C@H](CCCCN)NC(=O)[C@H](CO)NC(=O)[C@H](CC(=O)O)NC(=O)[C@@H]3CSSC[C@H](NC(=O)[C@H](CCCNC(=N)N)NC(=O)[C@H](CC(C)C)NC(=O)[C@H](CCC(=O)O)NC(=O)[C@H](CCC(=O)O)NC(=O)[C@H](CSSC[C@H](NC(=O)[C@@H](N)Cc4ccc(O)cc4)C(=O)N[C@@H](CCC(N)=O)C(=O)N[C@@H](CCCCN)C(=O)N[C@@H](Cc4c[nH]c5ccccc45)C(=O)N[C@@H](CCSC)C(=O)N[C@@H](Cc4c[nH]c5ccccc45)C(=O)N[C@@H]([C@@H](C)O)C(=O)N3)NC2=O)C(=O)N[C@@H](CCCCN)C(=O)N[C@@H](CC(C)C)C(=O)N[C@@H](Cc2c[nH]c3ccccc23)C(=O)N1)[C@@H](C)CC)C(N)=O` [G18 Glu mutant]: the half-maximal inhibitory concentration (IC50) in data set [1] (setting [7]) is 0.165 µM; in data set [2] (setting [8]) it was 1.22 µM; in data set [3] (setting [9]), over 10 µM.
`CC[C@H](C)[C@H](NC(=O)[C@@H](NC(=O)[C@H](CCCCN)NC(=O)[C@H](CCCNC(=N)N)NC(=O)[C@@H]1CSSC[C@@H]2NC(=O)[C@H](C)NC(=O)[C@H](CCCNC(=N)N)NC(=O)[C@H](CCCCN)NC(=O)[C@H](CO)NC(=O)[C@H](CC(=O)O)NC(=O)[C@@H]3CSSC[C@H](NC(=O)[C@H](CCCNC(=N)N)NC(=O)[C@H](CC(C)C)NC(=O)CNC(=O)[C@H](CCC(=O)O)NC(=O)[C@H](CSSC[C@H](NC(=O)[C@@H](N)Cc4ccc(O)cc4)C(=O)N[C@@H](CCC(N)=O)C(=O)N[C@@H](C)C(=O)N[C@@H](Cc4c[nH]c5ccccc45)C(=O)N[C@@H](CCSC)C(=O)N[C@@H](Cc4c[nH]c5ccccc45)C(=O)N[C@@H]([C@@H](C)O)C(=O)N3)NC2=O)C(=O)N[C@@H](CCCCN)C(=O)N[C@@H](CC(C)C)C(=O)N[C@@H](Cc2c[nH]c3ccccc23)C(=O)N1)[C@@H](C)CC)C(N)=O` [K4 Ala mutant]: the IC50 in data set [1] (setting [4]) is 0.417 µM; in data set [2] (setting [5]) it was 3.26 µM; in data set [3] (setting [6]), over 10 µM.
Turning to `CC[C@H](C)[C@H](NC(=O)[C@@H](NC(=O)[C@H](CCCCN)NC(=O)[C@H](CCCNC(=N)N)NC(=O)[C@@H]1CSSC[C@@H]2NC(=O)[C@H](C)NC(=O)[C@H](CCCNC(=N)N)NC(=O)[C@H](CCCCN)NC(=O)[C@H](CO)NC(=O)[C@H](CC(=O)O)NC(=O)[C@@H]3CSSC[C@H](NC(=O)[C@H](C)NC(=O)[C@H](CC(C)C)NC(=O)CNC(=O)[C@H](CCC(=O)O)NC(=O)[C@H](CSSC[C@H](NC(=O)[C@@H](N)Cc4ccc(O)cc4)C(=O)N[C@@H](CCC(N)=O)C(=O)N[C@@H](CCCCN)C(=O)N[C@@H](Cc4c[nH]c5ccccc45)C(=O)N[C@@H](CCSC)C(=O)N[C@@H](Cc4c[nH]c5ccccc45)C(=O)N[C@@H]([C@@H](C)O)C(=O)N3)NC2=O)C(=O)N[C@@H](CCCCN)C(=O)N[C@@H](CC(C)C)C(=O)N[C@@H](Cc2c[nH]c3ccccc23)C(=O)N1)[C@@H](C)CC)C(N)=O` [R20 Ala mutant], the half-maximal inhibitory concentration (IC50) in data set [2] (setting [5]) is 0.425 µM; in data set [3] (setting [10]), 4.64 µM.
For the molecule `CC[C@H](C)[C@H](NC(=O)[C@@H](NC(=O)[C@H](CCCCN)NC(=O)[C@H](CCCNC(=N)N)NC(=O)[C@@H]1CSSC[C@@H]2NC(=O)[C@H](C)NC(=O)[C@H](CCCNC(=N)N)NC(=O)[C@H](CCCCN)NC(=O)[C@H](CO)NC(=O)[C@H](CC(=O)O)NC(=O)[C@@H]3CSSC[C@H](NC(=O)[C@H](CCCNC(=N)N)NC(=O)[C@H](CC(C)C)NC(=O)CNC(=O)[C@H](CCC(=O)O)NC(=O)[C@H](CSSC[C@H](NC(=O)[C@@H](N)Cc4ccc(O)cc4)C(=O)N[C@@H](CCC(N)=O)C(=O)N[C@@H](CCCCN)C(=O)N[C@@H](Cc4c[nH]c5ccccc45)C(=O)N[C@@H](CCSC)C(=O)N[C@@H](C)C(=O)N[C@@H]([C@@H](C)O)C(=O)N3)NC2=O)C(=O)N[C@@H](CCCCN)C(=O)N[C@@H](CC(C)C)C(=O)N[C@@H](Cc2c[nH]c3ccccc23)C(=O)N1)[C@@H](C)CC)C(N)=O` [W7 Ala mutant], in data set [3] (setting [10]), the 50% inhibitory concentration (IC50) is over 5 µM.
Take `CC[C@H](C)[C@H](NC(=O)[C@@H](NC(=O)[C@H](CCCCN)NC(=O)[C@H](CCCNC(=N)N)NC(=O)[C@@H]1CSSC[C@@H]2NC(=O)[C@H](C)NC(=O)[C@H](CCCNC(=N)N)NC(=O)[C@H](CCCCN)NC(=O)[C@H](CO)NC(=O)[C@H](CC(=O)O)NC(=O)[C@@H]3CSSC[C@H](NC(=O)[C@H](CCCNC(=N)N)NC(=O)[C@H](CC(C)C)NC(=O)CNC(=O)[C@H](CCC(=O)O)NC(=O)[C@H](CSSC[C@H](NC(=O)[C@@H](N)Cc4ccc(O)cc4)C(=O)N[C@@H](CCC(N)=O)C(=O)N[C@@H](CCCCN)C(=O)N[C@@H](Cc4c[nH]c5ccccc45)C(=O)N[C@@H](CCSC)C(=O)N[C@@H](CCC(=O)O)C(=O)N[C@@H]([C@@H](C)O)C(=O)N3)NC2=O)C(=O)N[C@@H](CCCCN)C(=O)N[C@@H](CC(C)C)C(=O)N[C@@H](Cc2c[nH]c3ccccc23)C(=O)N1)[C@@H](C)CC)C(N)=O` [W7 Glu mutant]: the IC50 in data set [3] (setting [11]) is over 5 µM.
With `CC[C@H](C)[C@H](NC(=O)[C@@H](NC(=O)[C@H](CCCCN)NC(=O)[C@H](CCCNC(=N)N)NC(=O)[C@@H]1CSSC[C@@H]2NC(=O)[C@H](C)NC(=O)[C@H](CCCNC(=N)N)NC(=O)[C@H](CCCCN)NC(=O)[C@H](CO)NC(=O)[C@H](CC(=O)O)NC(=O)[C@@H]3CSSC[C@H](NC(=O)[C@H](CCCNC(=N)N)NC(=O)[C@H](CC(C)C)NC(=O)CNC(=O)[C@H](CCC(=O)O)NC(=O)[C@H](CSSC[C@H](NC(=O)[C@H](C)N)C(=O)N[C@@H](CCC(N)=O)C(=O)N[C@@H](CCCCN)C(=O)N[C@@H](Cc4c[nH]c5ccccc45)C(=O)N[C@@H](CCSC)C(=O)N[C@@H](Cc4c[nH]c5ccccc45)C(=O)N[C@@H]([C@@H](C)O)C(=O)N3)NC2=O)C(=O)N[C@@H](CCCCN)C(=O)N[C@@H](CC(C)C)C(=O)N[C@@H](Cc2c[nH]c3ccccc23)C(=O)N1)[C@@H](C)CC)C(N)=O` [Y1 Ala mutant], in data set [3] (IWQ platform, single-residue Ala scan of JzTx-V, read-out: Ala mutant IWQ IC50 NaV1.5), the IC50 came to 3.07 µM.
As to `CC[C@H](C)[C@H](NC(=O)[C@@H](NC(=O)[C@H](CCCCN)NC(=O)[C@H](CCCNC(=N)N)NC(=O)[C@@H]1CSSC[C@@H]2NC(=O)[C@H](C)NC(=O)[C@H](CCCNC(=N)N)NC(=O)[C@H](CCCCN)NC(=O)[C@H](CO)NC(=O)[C@H](CC(=O)O)NC(=O)[C@@H]3CSSC[C@H](NC(=O)[C@H](CCCNC(=N)N)NC(=O)[C@H](CC(C)C)NC(=O)CNC(=O)[C@H](CCC(=O)O)NC(=O)[C@H](CSSC[C@H](NC(=O)[C@@H](N)CCC(=O)O)C(=O)N[C@@H](CCC(N)=O)C(=O)N[C@@H](CCCCN)C(=O)N[C@@H](Cc4c[nH]c5ccccc45)C(=O)N[C@@H](CCSC)C(=O)N[C@@H](Cc4c[nH]c5ccccc45)C(=O)N[C@@H]([C@@H](C)O)C(=O)N3)NC2=O)C(=O)N[C@@H](CCCCN)C(=O)N[C@@H](CC(C)C)C(=O)N[C@@H](Cc2c[nH]c3ccccc23)C(=O)N1)[C@@H](C)CC)C(N)=O` [Y1 Glu mutant], the concentration for half-maximal inhibition (IC50) in data set [2] (setting [8]) is 0.235 µM; in data set [3] (setting [11]) it was over 5 µM.
